# Data published in US20250228239A1, “MOLECULES HAVING PESTICIDAL UTILITY, AND INTERMEDIATES, COMPOSITIONS, AND PROCESSES, RELATED THERETO” (priority 2024, published 2025).
# Where two headings read alike, the source gives them in different places.
# Legend:
# [1] = test system: Beet Armyworm (Spodoptera exigua, LAPHEG); test: Bioassays on Beet Armyworm (BAW), 128-well diet tray assay; format: in vivo; details: Spodoptera exigua
# Experimental: (§1) Certain molecules disclosed in this document were tested against BAW and CL using procedures described in the following examples. In the reporting of the results, the “BAW & CL Rating Table” was used (See Table Section).
# Bioassays on BAW were conducted using a 128-well diet tray assay. One to five second instar BAW larvae were placed in each well (3 mL) of the diet tray that had been previously filled with 1 mL of artificial diet to which 50 μg/cm^2 of the test molecule (dissolved in 50 μL of 90:10 acetone-water mixture) had been applied (to each of eight wells) and then allowed to dry. Trays were covered with a clear self-adhesive cover, vented to allow gas exchange, and held at 25° C., 14:10 light-dark for five to seven days. Percent mortality was recorded for the larvae in each well; activity in the eight wells was then averaged. The results are indicated in the table entitled “Table ABC: Biological Results” (See Table Section).
# [2] = test system: Cabbage Looper (Trichoplusia ni, TRIPNI); test: Bioassays on Cabbage Looper (CL), 128-well diet tray assay; format: in vivo; details: Trichoplusia ni
# Experimental: as §1
# Bioassays on CL were conducted using a 128-well diet tray assay. One to five second instar CL larvae were placed in each well (3 mL) of the diet tray that had been previously filled with 1 mL of artificial diet to which 50 μg/cm^2 of the test molecule (dissolved in 50 μL of 90:10 acetone-water mixture) had been applied (to each of eight wells) and then allowed to dry. Trays were covered with a clear self-adhesive cover, vented to allow gas exchange, and held at 25° C., 14:10 light-dark for five to seven days. Percent mortality was recorded for the larvae in each well; activity in the eight wells was then averaged. The results are indicated in the table entitled “Table ABC: Biological Results” (See Table Section).
# [3] = Beet Armyworm, rating class, read-out: BAW
# [4] = Cabbage Looper, rating class, read-out: CL
# [5] = Beet Armyworm, Table ABC / ABC-DP rating, read-out: BAW rating
# [6] = Cabbage Looper, Table ABC / ABC-DP rating, read-out: CL rating
# [7] = Table ABC: Biological Results, species BAW, read-out: BAW
# [8] = Table ABC: Biological Results, species CL, read-out: CL
structure (smiles),measurement,setting,value
"O=C(Nc1cc(NC(=O)C(F)(F)C(F)F)c(F)cc1F)c1cc(NC(=O)[C@H]2[C@H](c3cc(Cl)c(Cl)c(Cl)c3)C2(Cl)Cl)ccc1Cl [F1568, 2-Chloro-5-((1R,3R)-2,2-dichloro-3-(3,4,5-trichlorophenyl)cyclopropane-1-carboxamido)-N-(2,4-difluoro-5-(2,2,3,3-tetrafluoropropanamido)phenyl)benzamide]",pest or weed control at 50 µg/cm2,[1]; [3],50 to 100%
same,pest or weed control at 50 µg/cm2,[2]; [4],50 to 100%
"O=C(Nc1cc(NC(=O)C(F)(F)F)c(F)cc1F)c1cc(NC(=O)[C@H]2[C@H](c3ccc(F)c(C(F)(F)F)c3)C2(Cl)Cl)ccc1Cl [F1541, 2-Chloro-5-((1R,3R)-2,2-dichloro-3-(4-fluoro-3-(trifluoromethyl)phenyl)cyclopropane-1-carboxamido)-N-(2,4-difluoro-5-(2,2,2-trifluoroacetamido)phenyl)benzamide]",pest or weed control at 50 µg/cm2,[1]; [3],50 to 100%
same,pest or weed control at 50 µg/cm2,[2]; [4],50 to 100%
"O=C(COCC(F)(F)F)Nc1c(F)ccc(NC(=O)c2cc(NC(=O)[C@H]3[C@H](c4ccc(F)c(C(F)(F)F)c4)C3(Cl)Cl)ccc2Cl)c1F [F1846, 2-Chloro-5-((1R,3R)-2,2-dichloro-3-(4-fluoro-3-(trifluoromethyl)phenyl)cyclopropane-1-carboxamido)-N-(2,4-difluoro-3-(2-(2,2,2-trifluoroethoxy)acetamido)phenyl)benzamide]",pest or weed control at 50 µg/cm2,[1]; [5],50 to 100%
same,pest or weed control at 50 µg/cm2,[2]; [6],50 to 100%
"O=C(Nc1ccc(F)c(NC(=O)C(F)(F)F)c1F)c1cc(NC(=O)[C@H]2[C@H](c3ccc(F)c(C(F)(F)F)c3)C2(Cl)Cl)cc(F)c1Cl [F1290, 2-Chloro-5-((1R,3R)-2,2-dichloro-3-(4-fluoro-3-(trifluoromethyl)phenyl)cyclopropane-1-carboxamido)-N-(2,4-difluoro-3-(2,2,2-trifluoroacetamido)phenyl)-3-fluorobenzamide]",pest or weed control at 50 µg/cm2,[1]; [7],50 to 100%
same,pest or weed control at 50 µg/cm2,[2]; [8],50 to 100%
"Nc1c(F)ccc(NC(=O)c2cc(NC(=O)[C@H]3[C@H](c4cc(Cl)cc(Cl)c4)C3(F)F)ccc2Cl)c1F (relative stereo) [F1080, trans-N-(3-Amino-2,4-difluorophenyl)-2-chloro-5-(3-(3,5-dichlorophenyl)-2,2-difluorocyclopropane-1-carboxamido)benzamide]",pest or weed control at 50 µg/cm2,[1]; [7],50 to 100%
same,pest or weed control at 50 µg/cm2,[2]; [8],50 to 100%
"Cc1cc(NC(=O)c2cc(NC(=O)[C@H]3[C@H](c4cc(Cl)cc(Cl)c4)C3(Cl)Cl)ccc2Cl)c(C)cc1N (relative stereo) [F1257, trans-N-(4-Amino-2,5-dimethylphenyl)-2-chloro-5-(2,2-dichloro-3-(3,5-dichlorophenyl)cyclopropane-1-carboxamido)benzamide]",pest or weed control at 50 µg/cm2,[1]; [7],50 to 100%
same,pest or weed control at 50 µg/cm2,[2]; [8],50 to 100%
"Cc1cc(NCCO)ccc1NC(=O)c1cc(NC(=O)[C@H]2[C@H](c3ccc(F)c(C(F)(F)F)c3)C2(Cl)Cl)ccc1Cl [F1145, 2-Chloro-5-((1R,3R)-2,2-dichloro-3-(4-fluoro-3-(trifluoromethyl)phenyl)cyclopropane-1-carboxamido)-N-(4-((2-hydroxyethyl)amino)-2-methylphenyl)benzamide]",pest or weed control at 50 µg/cm2,[1]; [7],50 to 100%
same,pest or weed control at 50 µg/cm2,[2]; [8],50 to 100%
"CC(=O)Nc1cc(F)cc(F)c1NC(=O)c1cc(NC(=O)[C@H]2[C@H](c3cc(Cl)cc(Cl)c3)C2(Cl)Cl)ccc1Cl (relative stereo) [F1633, trans-N-(2-Acetamido-4,6-difluorophenyl)-2-chloro-5-(2,2-dichloro-3-(3,5-dichlorophenyl)cyclopropane-1-carboxamido)benzamide]",pest or weed control at 50 µg/cm2,[1]; [3],50 to 100%
same,pest or weed control at 50 µg/cm2,[2]; [4],50 to 100%
O=C(Nc1ccc(F)cc1NC(=O)C(Cl)(Cl)Cl)c1cc(NC(=O)C2C(c3ccc(Cl)c(Cl)c3)C2(Cl)Cl)ccc1Cl (stereo not shown) [F1126],pest or weed control at 50 µg/cm2,[1]; [7],50 to 100%
same,pest or weed control at 50 µg/cm2,[2]; [8],50 to 100%
"O=C(NCCCCl)c1cc(NC(=O)[C@H]2[C@H](c3ccc(F)c(Cl)c3)C2(Cl)Cl)cc(F)c1F (relative stereo) [F2052, trans-N-(3-Chloropropyl)-5-(2,2-dichloro-3-(3-chloro-4-fluorophenyl)cyclopropane-1-carboxamido)-2,3-difluorobenzamide]",pest or weed control at 50 µg/cm2,[1]; [5],50 to 100%
same,pest or weed control at 50 µg/cm2,[2]; [6],50 to 100%
"CC(=O)Nc1ccc(F)c(NC(=O)c2cc(NC(=O)[C@H]3[C@H](c4ccc(Cl)c(Cl)c4)C3(Cl)Cl)cc(F)c2Cl)c1F [F1522, N-(3-Acetamido-2,6-difluorophenyl)-2-chloro-5-((1R,3R)-2,2-dichloro-3-(3,4-dichlorophenyl)cyclopropane-1-carboxamido)-3-fluorobenzamide]",pest or weed control at 50 µg/cm2,[1]; [3],50 to 100%
same,pest or weed control at 50 µg/cm2,[2]; [4],50 to 100%
"O=C(NCCCCl)c1c(Cl)ccc(NC(=O)[C@H]2[C@H](c3ccc(F)c(Cl)c3)C2(Cl)Cl)c1F [F2074, 6-Chloro-N-(3-chloropropyl)-3-((1R,3R)-2,2-dichloro-3-(3-chloro-4-fluorophenyl)cyclopropane-1-carboxamido)-2-fluorobenzamide]",pest or weed control at 50 µg/cm2,[1]; [5],50 to 100%
same,pest or weed control at 50 µg/cm2,[2]; [6],50 to 100%
"O=C(NNC(=S)NCC(F)(F)F)c1cc(NC(=O)[C@H]2[C@H](c3cc(Cl)cc(Cl)c3)C2(Cl)Cl)ccc1Cl (relative stereo) [F2539, trans-2,2-dichloro-N-(4-chloro-3-(2-((2,2,2-trifluoroethyl)carbamothioyl)hydrazine-1-carbonyl)phenyl)-3-(3,5-dichlorophenyl)cyclopropane-1-carboxamide]",pest or weed control at 50 µg/cm2,[1]; [5],50 to 100%
same,pest or weed control at 50 µg/cm2,[2]; [6],50 to 100%
"CC(=O)Nc1ccc(F)c(NC(=O)c2cc(NC(=O)[C@H]3[C@H](c4ccc(Cl)c(Cl)c4)C3(Cl)Cl)cc(C)c2Cl)c1F [F1523, N-(3-Acetamido-2,6-difluorophenyl)-2-chloro-5-((1R,3R)-2,2-dichloro-3-(3,4-dichlorophenyl)cyclopropane-1-carboxamido)-3-methylbenzamide]",pest or weed control at 50 µg/cm2,[1]; [3],50 to 100%
same,pest or weed control at 50 µg/cm2,[2]; [4],50 to 100%
"C#CCNc1c(F)ccc(NC(=O)c2cc(NC(=O)[C@H]3[C@H](c4ccc(F)c(C(F)(F)F)c4)C3(Cl)Cl)ccc2Cl)c1F [F1807, 2-Chloro-5-((1R,3R)-2,2-dichloro-3-(4-fluoro-3-(trifluoromethyl)phenyl)cyclopropane-1-carboxamido)-N-(2,4-difluoro-3-(prop-2-yn-1-ylamino)phenyl)benzamide]",pest or weed control at 50 µg/cm2,[1]; [5],50 to 100%
same,pest or weed control at 50 µg/cm2,[2]; [6],50 to 100%
"O=C(Nc1c(F)ccc(NC(=O)C(F)F)c1F)c1cc(NC(=O)[C@H]2[C@H](c3ccc(Cl)c(Cl)c3)C2(Cl)Cl)ccc1F [F1512, 5-((1R,3R)-2,2-Dichloro-3-(3,4-dichlorophenyl)cyclopropane-1-carboxamido)-N-(3-(2,2-difluoroacetamido)-2,6-difluorophenyl)-2-fluorobenzamide]",pest or weed control at 50 µg/cm2,[1]; [3],50 to 100%
same,pest or weed control at 50 µg/cm2,[2]; [4],50 to 100%
"O=C(Nc1ccc(F)c(NC(=O)C2CCCO2)c1F)c1cc(NC(=O)[C@H]2[C@H](c3ccc(F)c(Br)c3)C2(Cl)Cl)ccc1Cl (stereo partly drawn) [F1714, N-(3-(5-((1R,3R)-3-(3-Bromo-4-fluorophenyl)-2,2-dichlorocyclopropane-1-carboxamido)-2-chlorobenzamido)-2,6-difluorophenyl)tetrahydrofuran-2-carboxamide]",pest or weed control at 50 µg/cm2,[1]; [3],50 to 100%
same,pest or weed control at 50 µg/cm2,[2]; [4],50 to 100%
